Several values for one entry are separate records, joined by “and”; a condition that tells them apart may be missing. Equal values may be shown once. Entries after “also recorded” stand apart in the source; their conditions may differ.
Columns and labels:
[1] = tested on: CB CD34^+CD38^−lin^− cells; experiment: Culture of human CB CD34+CD38-lin- cells with TSF plus retinoid/rexinoid ligand (immunophenotype, CFC content); format: cell-based
Experimental: (§1) Isolation of Human BM and CB CD34^+CD38^−lin− cells
(§2) Whole BM and CB units were obtained from the Duke University Stem Cell Laboratory within 48 hours of collection. Volume reduction of CB units was accomplished by 10 minute incubation at room temperature with 1% Hetastarch (Abbott Laboratories, North Chicago, Ill.), followed by centrifugation at 700 rpm for 10 minutes to facilitate component separation. The buffy coat was collected and washed twice with Dulbecco's phosphate buffered saline (PBS; Invitrogen, Carlsbad, Calif.) containing 10% heat-inactivated fetal bovine serum (FBS; Hyclone, Logan, Utah), 100 U/ml penicillin, and […] streptomycin (1% pcn/strp; Invitrogen). Cell pellets were resuspended in PBS with 10% FBS and 1% pcn/strp and overlaid onto Lymphoprep (Axis-Shield, Olso, Norway) and centrifuged at 1500 rpm for 30 minutes to isolate the mononuclear cell (MNC) fraction. MNCs were collected and washed twice before proceeding to lineage depletion.
(§3) Briefly, CB or BM MNCs were resuspended at 5−8×10^7 cells/ml in PBS with 10% FBS and 1% pcn/strp and incubated with 100 μl/ml antibody cocktail for 30 minutes followed by incubation with 60 μl/ml magnetic colloid for 30 minutes. Cells were then magnetically depleted on a pump fed negative selection column (Stem Cell Technologies) using the manufacturer's recommended procedure. Lin-cells were washed twice, quantified by hemacytometer count and cryopreserved in 90% FBS and 10% dimethylsulfoxide (DMSO; Sigma-Aldrich, St. Louis, Mo.) or utilized directly for further experiments.
(§4) Lin^− CB or BM cells were thawed, washed once in Iscove's Modified Dulbecco's Medium (IMDM; Invitrogen) containing 10% FBS and 1% pcn/strp, counted, and resuspended at 5−10×10^7/ml. Immunofluorescent staining was conducted using anti-human CD34-fluorescein isothiocyanate (FITC) and anti-human CD38-phycoerythrin (PE) monoclonal antibodies (Becton Dickinson, San Jose, Calif.), for 30 minutes on ice. Stained cells were washed twice and resuspended at 1×10^7 cells/ml in IMDM with 10% FBS and 1% pcn/strp. Analysis and sterile cell sorting was conducted using a FACSvantage flow cytometer (Becton Dickinson) to isolate CD34^+CD38^− and CD34^+CD38^+ subsets. The CD34^+CD38^− sort gate was set to collect only those events falling in the lowest 5% of PE fluorescence within the total CD34^+ population, to ensure acquisition of highly purified CD34^+CD38^− cells.
(§5) Analysis of In Vitro Hematopoietic Activity of Human CD34^+CD38^−lin^− Cells Following Culture with LGD1506
(§6) Primary human BM and CB CD34^+CD38^−lin cells were placed in culture with 20 ng/mL thrombopoietin, 100 ng/mL stem cell factor (SCF), and flt-3 ligand (TSF), a cytokine combination previously found to induce human stem and progenitor cell proliferation and differentiation in vitro (Chute et al, Blood 105:576-583 (2005), Chute et al, Stem ells 22:202-215 (2004)).
In order to assess the hematopoietic effects of retinoid agonists on purified human HSCs, BM and CB CD34^+CD38^−lin^− cells were placed in culture with TSP with and without 1 μM all-trans retinoic acid (ATRA), an agonist of RAR. […] The hematopoietic activities of LGD0815, an RARA agonist, LGD0268, an RXR agonist, and LGD1506, an RXR selective modulator, in combination with TSF, were evaluated via measurement of total cell expansion, immunophenotype analysis, CFC content and morphologic analysis of cultured progeny versus day 0 (input) BM or CB CD34^+CD38^−lin^− cells.

[2] = tested on: BM CD34^+CD38^−lin^− cells; experiment: Culture of human BM CD34+CD38-lin- cells with TSF plus retinoid/rexinoid ligand (total cell expansion, immunophenotype, CFC content, morphology); format: cell-based
Experimental: as §1, §2, §3, §4, §5, §6
In order to assess the hematopoietic effects of retinoid agonists on purified human HSCs, BM and CB CD34^+CD38^−lin^− cells were placed in culture with TSP with and without 1 μM all-trans retinoic acid (ATRA), an agonist of RAR. Total cell expansion, immunophenotype, colony forming cell (CFC) content and morphologic analysis was performed on ATRA-treated progeny and compared with both day 0 CD34^+CD38^−lin^− populations and the progeny of TSF alone to assess the impact of retinoid agonism on the differentiation of human HSCs. This analysis was extended further by cultivating BM and CB CD34^+CD38^−lin^− cells with TSF coupled with ligands with specific affinity for either RAR or RXR (provided courtesy of Ligand Pharmaceuticals, Inc., San Diego, Calif.). The hematopoietic activities of LGD0815, an RARA agonist, LGD0268, an RXR agonist, and LGD1506, an RXR selective modulator, in combination with TSF, were evaluated via measurement of total cell expansion, immunophenotype analysis, CFC content and morphologic analysis of cultured progeny versus day 0 (input) BM or CB CD34^+CD38^−lin^− cells.

HOXB4 = experiment: Quantitative real-time PCR of HOXB4 expression in cultured CB CD34+CD38-lin- cells; format: cell-based, human
Description: Real Time PCR Analysis of LGD506-Treated HSCs
Extraction of total RNA from Day 0 and Day 7 CB CD34^+ populations was done using a RNeasy Mini spin column (Qiagen, Valencia, Calif.) according to the manufacturer's recommended protocol. […] Briefly, total RNA was isolated from CD34^+CD38^−lin^− cells according to the manufacturer's instructions for the RNaqueous®—Micro (Ambion) and reversed-transcribed to cDNA using iScript™ cDNA synthesis Kit (Biorad, Hercules, Calif.). cDNA concentrations were measured with a fluorometer (Turner Designs, Sunnyvale, Calif.) using RiboGreen reagent (Invitrogen). PCR amplification reactions were performed in 13 μl and contained equal amounts of cDNAs, 6.5 μL of iQ SYBR green supermix (Bio-Rad), 0.2 μM of each forward and reverse gene-specific primers for genes of interest and the normalization gene 36B4. PCR was performed on an iCycler (Bio-Rad) according to the following cycling conditions: an initial cycle of 15 min at 95° C.; 45 cycles of 45 sec at 95° C., 15 sec at 55° C., and 15 sec at 72° C.; followed by a melt-curve analysis cycle with steps of 10 sec each at 0.5° C. increments from 60 to 95° C. Amplification rates were visualized and analyzed on ICYCLER IQ optical system software version 3.0 (Bio-Rad). Gene-specific primers were purchased from Integrated DNA Technologies (Coralville, Iowa).

human BM SRCs = experiment: In vivo long-term repopulating assay in NOD/SCID mice (SRC assay) of cultured progeny
Experimental: In Vivo Long-Term Repopulating Assays in NOD/SCID Mice
NOD/SCID mice (Schulz et al, J. Immunol. 154:180-191 (1995)) were transplanted with either day 0 FACS-sorted BM or CB CD34^+CD38^− lin^− HSC-enriched cells or the progeny of CD34^+CD38^−lin− cells cultured with TSF alone or TSF supplemented with 1 μM LGD506, an RXR-specific ligand. Cells were transplanted via tail vein injection after irradiating NOD/SCID mice with 300 cGy using an X-ray irradiator as previously described (Chute et al, Blood 100:4433-4439 (2002), Chute et al, Blood 105:576-583 (2005)). Day 0 CD34^+CD38^−lin− HSCs and their progeny were co-transplanted with 2×10^4 […] accessory cells to facilitate engraftment as previously described (Bonnet et al, Bone Marrow Transpl. 23:203-209 (1999), Bhatia et al, Proc. Natl. Acad. Sci. USA 94:5320-5325 (1997)).
All mice in each group were sacrificed at week 8 and marrow samples were obtained by flushing their femurs with IMDM at 4° C. Red cells were lysed using red cell lysis buffer (Sigma-Aldrich) and flow cytometric analysis of human hematopoietic engraftment was performed as previously described using commercially available mAbs against human leukocyte differentiation antigens to identify engrafted human leukocytes and discriminate their hematopoietic lineages (Chute et al, Blood 100:4433-4439 (2002), Chute et al, Blood 105:576-583 (2005), Trischmann et al, J. Hematother. 2:305-313 (1993)).
Statistical Analysis and SRC Frequency Measurements
Comparisons of data from in vitro experiments were made using the Student's t test. For purposes of the limiting dilution analysis, a transplanted mouse was scored as positively engrafted if ≧0.1% of the marrow cells expressed human-CD45 via high resolution FACS analysis. This criteria is consistent with previously published criteria for human cell repopulation in NOD/SCID mice (Chute et al, Blood 100:4433-4439 (2002), Dorrell et al, Blood 95:102-110 (2000)). SRC frequency in each cell source was calculated using the maximum likelihood estimator as described previously by Taswell (J. Immunol. 126:1614-1619 (1981), Wang et al, Blood 89:3919-3924 (1997), Ueda et al, J. Clin. Invest. 105:1013-1021 (2000)). Confidence intervals for the frequencies were calculated using the profile likelihood method, and the likelihood ratio test was used to confirm the fit of the model.

RXR:RAR heterodimer = conditions: unpublished data of M. Leibowitz et al.; cited from earlier work
RXR:LXR heterodimer = conditions: unpublished data of M. Leibowitz et al.; cited from earlier work

CC1=C(/C=C/C(C)=C/C=C/C(C)=C/C(=O)O)C(C)(C)CCC1 [ATRA, all-trans retinoic acid]
differentiation of human HSCs during culture ([1]; ATRA with TSF, by day 7): enhanced the differentiation; also recorded: induced pronounced differentiation and myelbid maturation | number of CFCs ([1]; CB cells, ATRA+TSF versus TSF alone): signficantly less CFCs; also recorded: decreased | percentage of CD34+ cells ([1]; CB cells, TSF+1 μM ATRA, 7 days, versus TSF alone): marked loss; also recorded: declined relative to TSF alone | CD34+CD38- cells remaining in culture ([1]; CB cells, TSF+1 μM ATRA, day 7): marked loss; also recorded: no CD34^+CD38^− cells remained | percentage of CD34+CD38- cells at day 7 ([2]; BM cells, TSF+1 μM ligand, day 7): caused a decline

C/C(=C/C=C/C(C)=C/C(=O)O)c1cc(C(C)(C)C)cc(C(C)(C)C)c1OCC(F)F [LGD1506]
maintenance of CD34+CD38- cells in CB cultures ([1]; CB cells, TSF+LGD1506): supported the maintenance | increase in BM CD34+CD38- cell numbers compared to day 0 (input) ([2]; BM cells, LGD1506+TSF): 4 fold | total cell expansion ([2]; BM cells, LGD1506+TSF, day 7): 13 fold | reduction in CFC production during culture compared to TSF alone ([2]; LGD1506+TSF culture (FIG. 2D)): 50% | morphologic examination of cultured progeny ([2]; LGD1506+TSF cultures, data not shown): predominance of immature blasts | differentiation of human HSCs during culture ([2]; LGD1506 with TSF): inhibited HSC differentiation | CFCs less compared to TSF-cultured cells ([2]; progeny of LGD1506+TSF cultures): 2 fold | HOXB4 expression over time (HOXB4; LGD1506+TSF versus TSF alone (FIG. 3A)): prevented the downregulation | HOXB4 expression, percent of input (day 0) levels (HOXB4; LGD1506 added to TSF): 80% and 70% | huCD45+ cell repopulation of transplanted mice (human BM SRCs; cell dose 1−2.5×10^3, progeny of TSF+LGD1506 culture): no huCD45+ cell repopulation was detected | multilineage differentiation in engrafted mice (human BM SRCs; mice engrafted with LGD1506-treated cells): normal multilineage differentiation was evident | percent of transplanted mice with human repopulation (human BM SRCs; progeny of 5×10^3 BM CD34+CD38-lin- cells, LGD1506+TSF): 50-80% and 80% | mice showing huCD45+ cell repopulation (human BM SRCs; progeny of 5×10^3 BM CD34+CD38-lin- cells, LGD1506+TSF, week 8): 4 of 5 | mean huCD45+ cell repopulation (human BM SRCs; progeny of 5×10^3 BM cells, LGD1506+TSF): 0.2% | effect on RXR:RAR heterodimer (RXR:RAR heterodimer): neutral or inhibitory effects | effect on RXR:LXR heterodimer (RXR:LXR heterodimer): inhibit
